Target: T1, c-kit mutant D816V (Homo sapiens, UniProt P10721, D816V/DEL694-753)
T1 construct: residues 551-934, kinase insertion domain residues 694-753 deleted; 6x-histidine (N); made in house; host or cells: E. coli Arctic Express (DE3) RIL (Stratagene)
Test: c-Kit mutant D816V biochemical assay, AlphaScreen
Details: c-kit D816V biochemical inhibitory activity; read-out: Biochemical activity (IC50 μM) Kit D816V
Description: Compounds to be tested were dissolved in DMSO to a concentration of 20 mM. These were diluted 30 μl into 120 μl of DMSO (4 mM) and 1 μl was added to an assay plate. These were then serially diluted 1:3 (50 μl to 100 μl DMSO) for a total of 8 points. Plates were prepared such that each kinase reaction is 20 μl in 1× kinase buffer (25 mM HEPES, pH 7.2, 8 mM MgCl2, 2 mM MnCl2, 50 mM NaCl, 0.01% Brij, 1 mM DTT, 0.01% BSA), 5% DMSO and 10 μM ATP. […] After incubation of the kinase reaction for 30 minutes at room temperature, 5 μl of donor beads (Streptavidin coated beads (Perkin Elmer Life Science) final concentration 7.5 μg/ml) in stop buffer (25 mM Hepes pH 7.5, 100 mM EDTA, 0.01% BSA) was added, the sample was mixed and incubated for 20 minutes at room temperature before adding 5 μl of acceptor beads (PY20 coated beads (Perkin Elmer Life Science) final concentration 7.5 μg/ml) in stop buffer. The samples were incubated for 60 minutes at room temperature and the signal per well was read on EnVision reader. […] The signal vs. compound concentration was used to determine the IC50.
Cells were grown in Terrific Broth (TB) media to an OD600 of 0.6 at 37° C. at which temperature was reduced to 10° C., protein was induced with 1.0 mM IPTG for 18 hours and harvested by centrifugation at 8000×g for 20 minutes. Cells were re-suspended in 0.1M KPO4 pH 8.0, 250 mM NaCl, 10% Glycerol, 0.75% NP-40, 25 mM Imidazole, 5 mM BME with 0.2 mg/ml Lysosyme, 2.0 mM PMSF, 25 μg/ml DNAse I, incubated in ice for 30 minutes and lysed with a cell disruptor (MicroFluidics). The lysate was clarified by centrifugation at 20,000×g for 2 hours. The protein was captured with Talon resin (Clontech). Contaminating proteins were washed off with 25 mM Tris-HCl pH 8.3, 250 mM NaCl, 15% Glycerol, 1% Triton X-100, and protein eluted using 100 mM EDTA. The protein was further purified using Gel Filtration column 26/600 Superdex 200 (GE) in 50 mM Tris-HCl, pH 8.0, 250 mM NaCl, 15% Glycerol, 5 mM BME. The protein was aliquoted and flash-frozen in liquid Nitrogen.

T1 sequence (P10721 with tags, fused parts or gaps DEL694-753/D816V): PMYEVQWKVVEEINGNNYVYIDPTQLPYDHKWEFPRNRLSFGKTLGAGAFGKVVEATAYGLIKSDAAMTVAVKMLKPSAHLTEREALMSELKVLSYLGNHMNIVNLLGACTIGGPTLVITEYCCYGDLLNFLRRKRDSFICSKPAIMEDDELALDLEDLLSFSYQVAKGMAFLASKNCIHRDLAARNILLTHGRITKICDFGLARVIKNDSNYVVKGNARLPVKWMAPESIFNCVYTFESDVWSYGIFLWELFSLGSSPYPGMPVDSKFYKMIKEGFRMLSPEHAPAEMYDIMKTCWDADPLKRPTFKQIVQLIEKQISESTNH

## O=C(NCc1cccc(OC(F)(F)F)c1)N1CCN(c2ncnc3[nH]c(-c4ccc(F)cc4)cc23)CC1 [P-0076, 4-[6-(4-fluorophenyl)-7H-pyrrolo[2,3-d]pyrimidin-4-yl]-N-[[3-(trifluoromethoxy)phenyl]methyl]piperazine-1-carboxamide]
  IC50: 1 to 10 µM

## C[C@H](NC(=O)N1CCN(c2ncnc3[nH]c(-c4ccncc4)cc23)C[C@@H]1C)c1ccc(Cl)cc1 [P-0050, (2S)-N-[(1S)-1-(4-chlorophenyl)ethyl]-2-methyl-4-[6-(4-pyridyl)-7H-pyrrolo[2,3-d]pyrimidin-4-yl]piperazine-1-carboxamide]
  IC50: 0.0001 to 1 µM

## CCS(=O)(=O)Nc1ccc(-c2ncnc3cc(-c4ccc(F)cc4)sc23)cc1 [P-0630, N-[4-[6-(4-fluorophenyl)thieno[3,2-d]pyrimidin-4-yl]phenyl]ethanesulfonamide]
  IC50: 1 to 10 µM

## Cc1ccc(NC(=O)N2CCN(c3ncnc4[nH]c(-c5ccncc5)cc34)C[C@@H]2C)cn1 [P-0039, (2S)-2-methyl-N-(6-methyl-3-pyridyl)-4-[6-(4-pyridyl)-7H-pyrrolo[2,3-d]pyrimidin-4-yl]piperazine-1-carboxamide]
  IC50: 1 to 10 µM

## COc1ncc(F)cc1CNC(=O)N1CCN(c2ncnc3[nH]c(-c4cccnc4)cc23)CC1 [P-0140, N-[(5-fluoro-2-methoxy-3-pyridyl)methyl]-4-[6-(3-pyridyl)-7H-pyrrolo[2,3-d]pyrimidin-4-yl]piperazine-1-carboxamide]
  IC50: 1 to 10 µM

## COc1cccc([C@H](C)NC(=O)N2CCN(c3ncnc4[nH]c(-c5ccc(C#N)cc5)cc34)CC2)c1 [P-0069, 4-[6-(4-cyanophenyl)-7H-pyrrolo[2,3-d]pyrimidin-4-yl]-N-[(1S)-1-(3-methoxyphenyl)ethyl]piperazine-1-carboxamide]
  IC50: 0.0001 to 1 µM

## COc1cc(-c2cc3c(N4CCC(NS(=O)(=O)c5ccc(C)cc5)CC4)ncnc3[nH]2)ccn1 [P-0660, N-[1-[6-(2-methoxy-4-pyridyl)-7H-pyrrolo[2,3-d]pyrimidin-4-yl]-4-piperidyl]-4-methyl-benzenesulfonamide]
  IC50: 0.0001 to 1 µM

## COc1ccc([C@@H](C)NC(=O)N2CCN(c3ncnc4[nH]c(-c5ccc(F)cc5)cc34)CC2)cc1 [P-0145]
  IC50: 10 to 200 µM

## COc1cccc(CNC(=O)N2CC3CCC(C2)N3c2ncnc3cc(-c4ccc(F)cc4)sc23)c1 [P-0551, 8-[6-(4-fluorophenyl)thieno[3,2-d]pyrimidin-4-yl]-N-[(3-methoxyphenyl)methyl]-3,8-diazabicyclo[3.2.1]octane-3-carboxamide]
  IC50: 1 to 10 µM

## Cc1csc(-c2cc3c(N4CCC(NS(=O)(=O)c5ccc(OC(F)(F)F)cc5)CC4)ncnc3[nH]2)c1 [P-0661, N-[1-[6-(4-methyl-2-thienyl)-7H-pyrrolo[2,3-d]pyrimidin-4-yl]-4-piperidyl]-4-(trifluoromethoxy)benzenesulfonamide]
  IC50: 10 to 200 µM

## C[C@H](NC(=O)N1CCN(c2ncnc3[nH]c(-c4ccc(F)cc4)cc23)C[C@H]1C)c1cccc(Cl)c1 [P-0701, (2R)-N-[(1S)-1-(3-chlorophenyl)ethyl]-4-[6-(4-fluorophenyl)-7H-pyrrolo[2,3-d]pyrimidin-4-yl]-2-methyl-piperazine-1-carboxamide]
  IC50: 0.0001 to 1 µM

## Cc1ccc(S(=O)(=O)Nc2cccc(-c3ncnc4[nH]c(-c5ccc(F)cc5)cc34)c2)cc1 [P-0435, N-[3-[6-(4-fluorophenyl)-7H-pyrrolo[2,3-d]pyrimidin-4-yl]phenyl]-4-methyl-benzenesulfonamide]
  IC50: 10 to 200 µM

## c1nc(-c2cnc(C3CC3)nc2)c2cc(-c3cnc(C4CC4)nc3)[nH]c2n1 [P-0384, 4,6-bis(2-cyclopropylpyrimidin-5-yl)-7H-pyrrolo[2,3-d]pyrimidine]
  IC50: 10 to 200 µM

## O=S(=O)(NC1CCN(c2ncnc3[nH]c(-c4ccc(Cl)cc4)cc23)CC1)c1cccc(OC(F)(F)F)c1 [P-0499, N-[1-[6-(4-chlorophenyl)-7H-pyrrolo[2,3-d]pyrimidin-4-yl]-4-piperidyl]-3-(trifluoromethoxy)benzenesulfonamide]
  IC50: 1 to 10 µM

## Cc1ccccc1C(=O)c1c[nH]c2ncnc(N3CCN(C(=O)OC(C)(C)C)CC3)c12 [P-0187, tert-butyl 4-[5-(2-methylbenzoyl)-7H-pyrrolo[2,3-d]pyrimidin-4-yl]piperazine-1-carboxylate]
  IC50: 0.0001 to 1 µM

## O=S(=O)(NC1CCN(c2ncnc3[nH]c(-c4ccc(Cl)cc4)cc23)CC1)c1cccc(Cl)c1 [P-0480, 3-chloro-N-[1-[6-(4-chlorophenyl)-7H-pyrrolo[2,3-d]pyrimidin-4-yl]-4-piperidyl]benzenesulfonamide]
  IC50: 1 to 10 µM

## Cc1ccc(S(=O)(=O)Nc2ccc(-c3ncnc4cc(-c5ccc(F)cc5)sc34)cc2)cc1 [P-0636, N-[4-[6-(4-fluorophenyl)thieno[3,2-d]pyrimidin-4-yl]phenyl]-4-methyl-benzenesulfonamide]
  IC50: 0.0001 to 1 µM

## C[C@H]1CN(c2ncnc3[nH]c(-c4ccncc4)cc23)CCN1C(=O)NCc1cccc(Cl)c1 [P-0040, (2S)-N-[(3-chlorophenyl)methyl]-2-methyl-4-[6-(4-pyridyl)-7H-pyrrolo[2,3-d]pyrimidin-4-yl]piperazine-1-carboxamide]
  IC50: 0.0001 to 1 µM

## C[C@H](NC(=O)N1CCN(c2ncnc3[nH]c(-c4ccc(C#N)cc4)cc23)CC1(C)C)c1cccc(OC(F)F)c1 [P-0698, 4-[6-(4-cyanophenyl)-7H-pyrrolo[2,3-d]pyrimidin-4-yl]-N-[(1S)-1-[3-(difluoromethoxy)phenyl]ethyl]-2,2-dimethyl-piperazine-1-carboxamide]
  IC50: 0.0001 to 1 µM

## O=C(Nc1cccnc1)N1CCN(c2ncnc3[nH]ccc23)CC1 [P-0152, N-(3-pyridyl)-4-(7H-pyrrolo[2,3-d]pyrimidin-4-yl)piperazine-1-carboxamide]
  IC50: 0.0001 to 1 µM

## O=C(NCc1ccc(F)cn1)N1CCN(c2ncnc3[nH]c(-c4cccnc4)cc23)CC1 [P-0124, N-[(5-fluoro-2-pyridyl)methyl]-4-[6-(3-pyridyl)-7H-pyrrolo[2,3-d]pyrimidin-4-yl]piperazine-1-carboxamide]
  IC50: 1 to 10 µM

## C[C@@H](NC(=O)N1CCN(c2ncnc3[nH]c(-c4ccc(F)cc4)cc23)CC1)c1ccc(F)cc1 [P-0147, N-[(1R)-1-(4-fluorophenyl)ethyl]-4-[6-(4-fluorophenyl)-7H-pyrrolo[2,3-d]pyrimidin-4-yl]piperazine-1-carboxamide]
  IC50: 1 to 10 µM

## C[C@H](NC(=O)N1CCN(c2ncnc3[nH]c(-c4ccc(F)cc4)cc23)CC1)c1cccc(F)c1 [P-0036, N-[(1S)-1-(3-fluorophenyl)ethyl]-4-[6-(4-fluorophenyl)-7H-pyrrolo[2,3-d]pyrimidin-4-yl]piperazine-1-carboxamide]
  IC50: 0.0001 to 1 µM

## CCCc1ccc(S(=O)(=O)NC2CCN(c3ncnc4[nH]c(C)cc34)CC2)cc1 [P-0658, N-[1-(6-methyl-7H-pyrrolo[2,3-d]pyrimidin-4-yl)-4-piperidyl]-4-propyl-benzenesulfonamide]
  IC50: 1 to 10 µM

## O=C(NCc1ccc(F)cc1)N1CCN(c2ncnc3[nH]c(-c4ccc(F)cc4)cc23)CC1 [P-0090, N-[(4-fluorophenyl)methyl]-4-[6-(4-fluorophenyl)-7H-pyrrolo[2,3-d]pyrimidin-4-yl]piperazine-1-carboxamide]
  IC50: 0.0001 to 1 µM

## COc1cccc(CNC(=O)N2CC3CCC2CN3c2ncnc3cc(-c4ccc(F)cc4)sc23)c1 (centres unmarked) [P-0547, 5-[6-(4-fluorophenyl)thieno[3,2-d]pyrimidin-4-yl]-N-[(3-methoxyphenyl)methyl]-2,5-diazabicyclo[2.2.2]octane-2-carboxamide]
  IC50: 0.0001 to 1 µM

## COc1ccc(S(=O)(=O)Nc2ccc(-c3ncnc4cc(OC)c(OC)cc34)cc2F)cc1 [P-0273, N-[4-(6,7-dimethoxyquinazolin-4-yl)-2-fluoro-phenyl]-4-methoxy-benzenesulfonamide]
  IC50: 0.0001 to 1 µM

## O=S(=O)(NC1CCN(c2ncnc3[nH]c(-c4ccc(Cl)cc4)cc23)CC1)c1cc2ccccc2s1 [P-0467, N-[1-[6-(4-chlorophenyl)-7H-pyrrolo[2,3-d]pyrimidin-4-yl]-4-piperidyl]benzothiophene-2-sulfonamide]
  IC50: 1 to 10 µM

## C[C@H](NC(=O)N1CCN(c2ncnc3[nH]c(-c4ccc(C#N)cc4)cc23)CC1)c1ccc(F)cc1 [P-0696, 4-[6-(4-cyanophenyl)-7H-pyrrolo[2,3-d]pyrimidin-4-yl]-N-[(1S)-1-(4-fluorophenyl)ethyl]piperazine-1-carboxamide]
  IC50: 0.0001 to 1 µM
